Consider seven compounds from patent US6706736B2, “Antidepressant azaheterocyclylmethyl derivatives of oxaheterocycle-fused-[1,4]-benzodioxans” (Wyeth, priority 2001, dated 2004).

One data set deals with T1, serotonin transporter (Rattus norvegicus, UniProt P31652).
T1 construct: displace ^3H-paroxetine from male rat frontal cortical membranes; from tissue; host or cells: male rat frontal cortex membranes
Briefly: 3H-paroxetine displacement from rat frontal cortical membranes (serotonin transporter affinity). Format: binding.

For another data set, the target named is T2, human 5-HT1A receptors (Homo sapiens, UniProt P08908).
T2 construct: expressed in transfected cells; host or cells: CHO cells (stably transfected)
T2 sequence (P08908 1-422): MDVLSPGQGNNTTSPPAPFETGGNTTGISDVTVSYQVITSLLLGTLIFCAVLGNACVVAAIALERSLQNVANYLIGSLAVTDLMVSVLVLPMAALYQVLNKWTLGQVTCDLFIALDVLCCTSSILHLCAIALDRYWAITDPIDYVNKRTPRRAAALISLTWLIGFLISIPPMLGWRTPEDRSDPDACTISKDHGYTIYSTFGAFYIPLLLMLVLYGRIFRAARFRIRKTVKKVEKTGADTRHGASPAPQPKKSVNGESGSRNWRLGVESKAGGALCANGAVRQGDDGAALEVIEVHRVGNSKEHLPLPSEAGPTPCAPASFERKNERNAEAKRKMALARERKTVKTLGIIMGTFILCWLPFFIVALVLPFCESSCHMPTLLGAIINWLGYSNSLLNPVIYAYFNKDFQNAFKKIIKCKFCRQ
Description: [3H] 8-OHDPAT displacement from 5-HT1A receptor in transfected CHO cells. Type of data set: binding. The text has this: High affinity for the serotonin 5-HT1A receptor was established by testing the claimed compound's ability to displace [^3H] 8-OHDPAT (dipropylaminotetralin) from the 5-HT1A serotonin receptor following a modification of the procedure of Hall et al., J. Neurochem. 44, 1685 (1985) which utilizes CHO cells stably transfected with human 5-HT1A receptors.

The target of data set [1] is T3, cloned human 5-HT1A receptors (Homo sapiens, UniProt P08908).
T3 construct: expressed in transfected cells
T3 sequence (P08908 1-422): T2 sequence (P08908 1-422)
Briefly: 35S-GTPγS binding assay, antagonist activity at 5-HT1A receptors. Format: biochemical. Particulars: reversal of standard agonist 8-OHDPAT; for IC50: read-out: 5-HT1A Function IC50; for 5-HT1A Function Imax (maximum inhibitory effect): value in parentheses. Here is the method:
Antagonist activity at 5-HT1A receptors was established by using a ^35S-GTPγS binding assay similar to that used by Lazareno and Birdsall (Br. J. Pharmacol. 109: 1120, 1993), in which the test compound's ability to affect the binding of ^35S-GTPγS to membranes containing cloned human 5-HT1A receptors was determined. Agonists produce an increase in binding whereas antagonists produce no increase but rather reverse the effects of the standard agonist 8-OHDPAT. The test compound's maximum inhibitory effect is represented as the Imax, while its potency is defined by the IC50.
On the technique in general: GTPγS resists hydrolysis and so accumulates on activated G proteins.

[2] abbreviates: 3H-paroxetine, male rat frontal cortical membranes, read-out: 5-HT Transporter Affinity KI.

Counter-ions that a name gives are not always drawn. Like-named read-outs stand apart in the source and are kept apart here.

T1 sequence (P31652 whole entry): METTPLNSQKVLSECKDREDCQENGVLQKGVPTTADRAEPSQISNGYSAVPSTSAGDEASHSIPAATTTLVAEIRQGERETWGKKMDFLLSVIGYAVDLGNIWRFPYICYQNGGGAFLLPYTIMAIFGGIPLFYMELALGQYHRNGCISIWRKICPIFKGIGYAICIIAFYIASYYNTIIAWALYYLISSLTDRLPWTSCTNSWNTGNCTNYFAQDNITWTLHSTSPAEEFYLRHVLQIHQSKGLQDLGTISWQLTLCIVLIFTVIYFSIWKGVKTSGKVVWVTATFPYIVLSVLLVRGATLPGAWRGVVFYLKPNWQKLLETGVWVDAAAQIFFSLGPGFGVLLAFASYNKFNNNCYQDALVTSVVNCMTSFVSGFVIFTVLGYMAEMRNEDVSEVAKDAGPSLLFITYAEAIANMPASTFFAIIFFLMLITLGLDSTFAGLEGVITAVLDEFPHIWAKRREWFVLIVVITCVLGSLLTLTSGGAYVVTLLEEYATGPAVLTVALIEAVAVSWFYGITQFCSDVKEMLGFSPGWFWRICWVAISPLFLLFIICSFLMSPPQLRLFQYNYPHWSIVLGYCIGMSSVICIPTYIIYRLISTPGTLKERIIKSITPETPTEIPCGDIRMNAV

As to `Fc1ccc2[nH]cc(C3=CCN(CC4COc5ccc6c(c5O4)CCCO6)CC3)c2c1` (stereo not shown) (as salt: salt) [Example 5, 5-Fluoro-3-{1-[2,3,9,10-tetrahydro-8H-[1,4]dioxino[2,3-f]chromen-2-ylmethyl]-1,2,3,6-tetrahydro-4-pyridinyl}-1H-indole], the melting point was 205 to 206 °C.
As for `Cc1cc2c3c(ccc2o1)OC[C@H](CN1CC=C(c2c[nH]c4ccccc24)CC1)O3` [Example 1], the Ki on serotonin transporter (setting [2]) was 185 nM; at human 5-HT1A receptors, 14.1 nM. Moreover, the IC50 in data set [1] turned out to be 241 nM. The “5-HT1A Function Imax (maximum inhibitory effect)” value in data set [1] stood at 62.0.
On to `Cc1cc2ccc3c(c2o1)OC(CN1CC=C(c2c[nH]c4ccccc24)CC1)CO3` (stereo not shown) [Example 1], for which the melting point was in the range of 198 to 200 °C.
For the compound `C1=C(c2c[nH]c3ccccc23)CCN(CC2COc3ccc4c(c3O2)CCO4)C1` (stereo not shown) [Example 2, 3-{1-[2,3,8,9-Tetrahydrofuro[3,2-f][1,4]benzodioxin-2-ylmethyl]-1,2,3,6-tetrahydro-4-pyridinyl}-1H-indole], the melting point fell in the range of 207 to 209 °C. This compound registered a Ki on serotonin transporter of 34 nM. This compound also returned an inhibition constant (Ki) at human 5-HT1A receptors of 46 nM. Moreover, in data set [1], the IC50 worked out at 264 nM and the “5-HT1A Function Imax (maximum inhibitory effect)” value is 66.0.
`C1=C(c2c[nH]c3ccccc23)CCN(CC2COc3ccc4occc4c3O2)C1` (stereo not shown) [Example 3, 3-{1-[2,3-Dihydrofuro[3,2-f][1,4]benzodioxin-2-ylmethyl]-1,2,3,6-tetrahydropyridin-4-yl}-1H-indole] came in with a melting point of 208 to 209 °C. Moreover, on serotonin transporter (setting [2]), the Ki was 115 nM. This compound also had a Ki at human 5-HT1A receptors of 19.6 nM. In addition, in data set [1], the IC50 stood at 19 nM and the “5-HT1A Function Imax (maximum inhibitory effect)” value is on record as 61.0.
Consider `C1=C(c2c[nH]c3ccccc23)CCN(CC2COc3ccc4c(c3O2)CCCO4)C1` (stereo not shown) [Example 4, 3-{1-[2,3,9,10-Tetrahydro-8H-[1,4]dioxino[2,3-f]chromen-2-ylmethyl]-1,2,3,6-tetrahydro-4-pyridinyl}-1H-indole], for which the melting point was 186 to 187 °C. The compound also had an inhibition constant (Ki) on serotonin transporter of 8.5 nM. This compound displayed a Ki on human 5-HT1A receptors of 30.4 nM. Besides, in data set [1], the IC50 worked out at 868 nM and the “5-HT1A Function Imax (maximum inhibitory effect)” value was 100.
In turn, `Fc1ccc2[nH]cc(C3=CCN(CC4COc5ccc6c(c5O4)CCCO6)CC3)c2c1` (stereo not shown) [Example 5, 5-Fluoro-3-{1-[2,3,9,10-tetrahydro-8H-[1,4]dioxino[2,3-f]chromen-2-ylmethyl]-1,2,3,6-tetrahydro-4-pyridinyl}-1H-indole] had an inhibition constant Ki at serotonin transporter of 10 nM. Moreover, the Ki at human 5-HT1A receptors stood at 29.4 nM. In addition, in data set [1], the IC50 was found to be 347 nM and the “5-HT1A Function Imax (maximum inhibitory effect)” value is reported as 100.

What is called melting point is the temperature of the solid-liquid transition. Broadly, the Ki is the dissociation constant of the complex between target and ligand, obtained from inhibition or displacement. The term IC50 denotes the midpoint of a concentration-inhibition curve.
